In patent US20200370045A1, “METHOD OF TREATING TYPE II DIABETES AND OBESITY AND METHOD OF SCREENING A MEDICAMENT FOR THE SAME” (Tsinghua University, priority 2017, published 2020):

What was measured:
Type in all cases: in vivo
microRNA-708 [1] = assay: Obesity level of HFD-fed obese mice treated with antisense nucleic acid of microRNA-708; conditions: 2-month old obese mice fed with HFD for two months; subcutaneously injected at 10 D/g weekly for four weeks; FIG. 13
Source text: (§1) A designed RNA sequence ([…] (SEQ ID NO: 2)), reverse complementary to microRNA-708, was subcutaneously injected at 10 D/g to 2-month old obese mice (fed with HFD for two months) weekly for four weeks.

microRNA-708 [2] = assay: Glucose tolerance test (GTT) in obese mice treated with antisense nucleic acid of microRNA-708; conditions: obese mice treated with antisense nucleic acids; FIG. 14
Procedure: (§2) As obesity is closely related to type II diabetes, the present inventors also examined the role of microRNA-708 in insulin sensitivity, where insulin tolerance test (ITT) and glucose tolerance test (GTT) were adopted. ITTs of the microRNA-708 knockout mice were assayed 0, 15, 30, 60, and 90 min after an intraperitoneal injection of insulin (diluted as 0.5 U/ml in saline and dosed at 0.5-1.2 U insulin per kg body mass, e.g., 0.5 U insulin per kg body mass, […]) following a 4 h fast. GTTs of the microRNA-708 knockout mice were assayed 0, 15, 30, 60, and 90 min after an intraperitoneal injection of glucose (diluted as 20% glucose solution in saline and dosed at 0.5-2 g glucose per kg body mass, e.g., 1 g glucose per kg body mass) following overnight fast.
as §1

microRNA-708 [3] = assay: Insulin tolerance test (ITT) in obese mice treated with antisense nucleic acid of microRNA-708; conditions: 2-month old obese mice fed with HFD for two months; subcutaneously injected at 10 D/g weekly for four weeks; FIG. 15
Procedure: as §2, §1

## CCCAGCUAGACUUGUAAGUCCUU [SEQ ID NO: 2]
microRNA-708 [1]
  obesity levels: declined distinctly
microRNA-708 [2]
  glucose tolerance: obvious relieved
microRNA-708 [3]
  insulin tolerance symptoms (insulin resistance): significantly alleviated
